Values joined by “and” are separate entries in the source; they are usually repeats but may differ in a detail not shown here. Identical values can stand only once. Like-named read-outs stand apart in the source and are kept apart here.
Legend:
OVCAR-3 cells [1] = assay: tumor growth of OVCAR-3 cells in nude mice; format: in vivo; conditions: cis-platin 4 μg/kg IP 3 times a week for 2 weeks, then 1 week no treatment; one mouse
Procedure: The following protocol was developed for examining tumor growth using OVCAR-3 cells and nude mice: OVCAR-3 cells (15 million/injection) were inoculated under upper arm region of nude mice. Visible lumps appeared after 25 days. The tumors were measurable at about 35 days after inoculation and animals were then either treated with cis-platin at 4 μg/kg body weight administered by IP injection 3 times a week for 2 weeks, followed by 1 week with no treatment or treated with saline solution alone as control. […] A photograph of the tumors before and after cis-platin treatment is also shown.

OVCA 429 cells = conditions: for 429: increased sensitivity to cis-platin: OVCA 429 cells with specific siRNA
OVCAR-3 cells [2] = assay: MTT assay, cis-platin sensitivity with siRNA; format: cell-based, human; conditions: OVCAR-3 cells with specific siRNA
[3] = system: zinc finger protein 262/MYM (AB007885); assay: siRNA-mediated knockdown of gene expression; format: cell-based, human; conditions: OVCA 429 cells
eIF5 (U49436) = assay: siRNA-mediated knockdown of gene expression; format: cell-based, human; conditions: OVCA 429 cell

| Molecule | tumor size (OVCAR-3 cells [1]) | IC50 (OVCA 429 cells; read-out: IC50 of cis-platin alone, OVCA 429, 4 hours exposure (FIG. 40)) | IC50 (OVCA 429 cells; read-out: IC50 of cis-platin, controls without specific siRNA or inhibitor, OVCA 429, 24 hour exposure, siPORT only or sense strand only) | OVCAR-3: increased sensitivity to cis-platin (OVCAR-3 cells [2]) | reduction of zinc finger protein 262/MYM mRNA levels compared to control [3] | 429: increased sensitivity to cis-platin (OVCA 429 cells) | reduction of eIF5 mRNA levels compared to control (eIF5 (U49436)) |
| --- | --- | --- | --- | --- | --- | --- | --- |
| N.N.[Cl][Pt][Cl] [cis-platin] | stabilization of the tumor size | ~100 µM | 25 to 50 µM and 25 µM and ~25 µM |  |  |  |  |
| Zinc finger protein 262/MYM siRNA #3: siRNA to zinc finger protein 262/MYM; target sequence AAAATATGGGAACCTACAATA (guide AAAATATGGGAACCTACAATA; target site or template, no part of the molecule; listed as DNA, chemistry not given here; listed as Homo Sapiens) |  |  |  | yes | approximately 45% | yes |  |
| eIF5 siRNA #1: siRNA to eIF5; target sequence AATGACCGTTACATTGTCAAT (guide AATGACCGTTACATTGTCAAT; target site or template, no part of the molecule; listed as DNA, chemistry not given here; listed as Homo Sapiens) |  |  |  | yes |  | yes | approximately 59% |

Reference: patent US8192935B2, “Methods for assessing cisplatin resistance, disease progression, and treatment efficacy in ovarian cancer as related to MetAP2 expression” (The Penn State Research Foundation, priority 2003, dated 2012)
